Test system: 292921-168-R tumor spheroid viability
Experiment: Anticancer human tumor 292921-168-R patient-derived pancreatic carcinoma cell line growth inhibition
Details: spheroids with HUVEC and MSC; for IC50: curve of first compound; for viability, T/C: stronger effect = lower value
Excerpt: Multicellular complex tumor spheroid response to DNA repair inhibitors in combination with DNA-damaging drugs
This study explores the anticancer activities of DNA-damaging drugs and inhibitors of DNA damage repair, both as single agents and in combinations. Complex tumor spheroids comprised of malignant cells, endothelial cells and mesenchymal stem cells served as an in vitro model for human solid tumors. This model system incorporates physiologically relevant features and patient-derived or established malignant cell lines with clinically relevant genetic alterations from many tumor types. Twenty-six patient-derived or established malignant cell lines were evaluated representing sarcoma, melanoma, small cell lung cancer (SCLC), non-small cell lung cancer (NSCLC), as well as bladder, ovarian and pancreatic cancers. The concentration ranges selected for each drug and investigational agent were based upon clinically achievable concentrations if the clinical Cmax of the agent was known.
Compounds. The drugs and compounds olaparib (NSC753686), talazoparib (NSC767125), berzosertib (NSC777718), elimusertib (NSC800525), nedisertib (NSC802822), VX-984 (NSC792969), AZD-1390 (NSC803789), temozolomide (NSC362856), topotecan (NSC609699), trabectedin (NSC813783), staurosporine (NSC755774), and gemcitabine (NSC613327) were obtained from the National Cancer Institute (NCI) Developmental Therapeutics Program Chemical Repository. The FDA-approved anticancer drug set is available from the Developmental Therapeutics Program at https://dtp.cancer.gov/organization/dscb/obtaining/available_plates.htm. […] The stock solutions were prepared in dimethyl sulfoxide (DMSO, Sigma-Aldrich, St. Louis, MO, cat. D2650) at 400-fold the tested concentration and stored at -70 degrees C. Prior to their use, the stock solutions were diluted in fresh medium and the final DMSO concentration in the assay was 0.25% (v/v). All drugs and investigational agents were tested over a range starting from a high concentration at or near the clinical Cmax and decreasing in half-log increments. If the clinical Cmax for an agent had not been determined, the highest concentration tested was 10 microM.
Cell Lines. The patient-derived cancer cell (PDC) lines: 156681-154-R-J1-PDC, 283228-195-R-J1-PDC, 287954-098-R-J1-PDC, 292921-168-R-J2-PDC, 349418-098-R-PDC, 425362-245-T-J1-PDC, 556581-035-R-J1-PDC, and BL0293-F563-PDC were received from the NCI Patient-Derived Models Repository (PDMR, https://pdmr.cancer.gov). The established cell lines HS-SY-2 (RRID:CVCL_8719), MPNST, and SYO-1 (RRID:CVCL_7146) were obtained from the Sloan Kettering Institute. The alveolar soft parts sarcoma cell line ASPS-1 (RRID:CVCL_S738) was established at the NCI and grown from internal seed stocks. The following established cell lines were purchased from the American Type Culture Collection (ATCC, Manassas, VA): G-401 (ATCC, cat. CRL-1441, RRID:CVCL_0270), SW982 (ATCC, cat. HTB-93, RRID:CVCL_1734), VA-ES-BJ (ATCC, cat. CRL-2138, RRID:CVCL_1785), NCI-H719 (ATCC, cat. CRL-5837, RRID:CVCL_1582), NCI-H196 (ATCC, cat. CRL-5823, RRID:CVCL_1509), NCI-H841 (ATCC, cat. CRL-5845, RRID:CVCL_1595), NCI-H1618 (ATCC, cat. CRL-5879, RRID:CVCL_1480), NCI-H1876 (ATCC, cat. CRL-5902, RRID:CVCL_1503), DMS 114 (ATCC, cat. CRL-2066; RRID:CVCL_1174), NCI-H211 (ATCC, cat. CRL-5824; RRID:CVCL_1529), and SW 1271 (ATCC, cat. CRL-2177, RRID:CVCL_1716). The small cell lung cancer cell line COR-L88 was purchased from Sigma-Aldrich (cat. 92031917-1VL, RRID:CVCL_1141). The non-small cell lung cancer cell lines NCI-H226 (RRID:CVCL_1544) and NCI-H322M (RRID:CVCL_1557) were established at the NCI and grown from internal seed stocks. Pooled donor human umbilical vein endothelial cells (HUVEC, Lonza, cat. CC-2519) and human mesenchymal stem cells (hMSC, Lonza, cat. PT-2501) were purchased from Lonza (Walkersville, MD).
Cell Culture. All cells were maintained in an incubator at 37 degrees C and 5% CO2 with 95% humidity. […]

[1] = second compound 0.003 µM, first compound 0.00949 µM
[2] = second compound 0.003 µM, first compound 0.03 µM
[3] = second compound 0.003 µM, first compound 0.0949 µM
[4] = second compound 0.003 µM, first compound 0.3 µM
[5] = second compound 0.003 µM, first compound 0.949 µM
[6] = second compound 0.003 µM, first compound 3 µM
[7] = second compound 0.00949 µM, first compound 0.00949 µM
[8] = second compound 0.00949 µM, first compound 0.03 µM
[9] = second compound 0.00949 µM, first compound 0.0949 µM
[10] = second compound 0.00949 µM, first compound 0.3 µM
[11] = second compound 0.00949 µM, first compound 0.949 µM
[12] = second compound 0.00949 µM, first compound 3 µM
[13] = second compound 0.03 µM, first compound 0.00949 µM
[14] = second compound 0.03 µM, first compound 0.03 µM
[15] = second compound 0.03 µM, first compound 0.0949 µM
[16] = second compound 0.03 µM, first compound 0.3 µM
[17] = second compound 0.03 µM, first compound 0.949 µM
[18] = second compound 0.03 µM, first compound 3 µM
[19] = second compound 0.0949 µM, first compound 0.00949 µM
[20] = second compound 0.0949 µM, first compound 0.03 µM
[21] = second compound 0.0949 µM, first compound 0.0949 µM
[22] = second compound 0.0949 µM, first compound 0.3 µM
[23] = second compound 0.0949 µM, first compound 0.949 µM
[24] = second compound 0.0949 µM, first compound 3 µM
[25] = second compound 0.3 µM, first compound 0.00949 µM
[26] = second compound 0.3 µM, first compound 0.03 µM
[27] = second compound 0.3 µM, first compound 0.0949 µM
[28] = second compound 0.3 µM, first compound 0.3 µM
[29] = second compound 0.3 µM, first compound 0.949 µM
[30] = second compound 0.3 µM, first compound 3 µM
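Also: spheroids exposed to compounds for 7 days.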

Compound	IC50 (second compound 0.003 µM) [nM]	IC50 (second compound 0.00949 µM) [nM]	IC50 (second compound 0.03 µM) [nM]	IC50 (second compound 0.0949 µM) [nM]	IC50 (second compound 0.3 µM) [nM]	viability, T/C [3] [%]	viability, T/C [4] [%]	viability, T/C [5] [%]	viability, T/C [6] [%]	viability, T/C [9] [%]	viability, T/C [10] [%]	viability, T/C [11] [%]	viability, T/C [12] [%]	viability, T/C [15] [%]	viability, T/C [16] [%]	viability, T/C [17] [%]	viability, T/C [18] [%]	viability, T/C [21] [%]	viability, T/C [22] [%]	viability, T/C [23] [%]	further results
CNCc1ccc(-c2cc(-c3nc(-c4ccc(S(=O)(=O)C(C)C)cc4)cnc3N)on2)cc1 + CC[C@@]1(O)C(=O)OCc2c1cc1n(c2=O)Cc2cc3c(CN(C)C)c(O)ccc3nc2-1	107	69.2	< 9.49	< 9.49	< 9.49	55.9	21.1	16.6	8.99	41	16.7	15.6	10.3	27	14.7	13.4	9.47	11.2	10.1	10.3	viability, T/C [1]: 92.2%; viability, T/C [2]: 77.3%; viability, T/C [7]: 73.1%; viability, T/C [8]: 74.7%; viability, T/C [13]: 35.9%; viability, T/C [14]: 32.9%; viability, T/C [19]: 12.6%; viability, T/C [20]: 15%; viability, T/C [24]: 2.13%; viability, T/C [25]: 4.63%; viability, T/C [26]: 4.83%; viability, T/C [27]: 4.59%; viability, T/C [28]: 5.23%; viability, T/C [29]: 6.72%; viability, T/C [30]: 0.97%
Cn1ncnc1[C@H]1c2n[nH]c(=O)c3cc(F)cc(c23)N[C@@H]1c1ccc(F)cc1 + CC[C@@]1(O)C(=O)OCc2c1cc1n(c2=O)Cc2cc3c(CN(C)C)c(O)ccc3nc2-1	181	13.3	< 9.49	< 9.49	< 9.49	57.4	41	31.4	12	33.8	30.1	19.5	12.9	17.4	16.9	14.5	8.5	9.81	8.52	7.84	viability, T/C [1]: 82.7%; viability, T/C [2]: 73.9%; viability, T/C [7]: 52.6%; viability, T/C [8]: 44.7%; viability, T/C [13]: 23.6%; viability, T/C [14]: 21.1%; viability, T/C [19]: 11%; viability, T/C [20]: 10.7%; viability, T/C [24]: 5.32%; viability, T/C [25]: 4.91%; viability, T/C [26]: 5.12%; viability, T/C [27]: 4.52%; viability, T/C [28]: 4.48%; viability, T/C [29]: 3.83%; viability, T/C [30]: 2.41%
O=C(c1cc(Cc2n[nH]c(=O)c3ccccc23)ccc1F)N1CCN(C(=O)C2CC2)CC1 + CC[C@@]1(O)C(=O)OCc2c1cc1n(c2=O)Cc2cc3c(CN(C)C)c(O)ccc3nc2-1	5580	3250	< 94.9	< 94.9	< 94.9	85.8	84.9	83.2	71.3	58.6	55	58.4	51.2	22.6	22.7	20.4	19.9	10.1	11.3	11.2	viability, T/C (second compound 0.003 µM, first compound 9.49 µM): 31.7%; viability, T/C (second compound 0.003 µM, first compound 30 µM): 25.6%; viability, T/C (second compound 0.00949 µM, first compound 9.49 µM): 31.1%; viability, T/C (second compound 0.00949 µM, first compound 30 µM): 23.9%; viability, T/C (second compound 0.03 µM, first compound 9.49 µM): 18.1%; viability, T/C (second compound 0.03 µM, first compound 30 µM): 18.6%; viability, T/C [24]: 10%; viability, T/C (second compound 0.0949 µM, first compound 9.49 µM): 8.85%; viability, T/C (second compound 0.0949 µM, first compound 30 µM): 10.6%; viability, T/C [27]: 4.24%; viability, T/C [28]: 4.06%; viability, T/C [29]: 4.61%; viability, T/C [30]: 4.65%; viability, T/C (second compound 0.3 µM, first compound 9.49 µM): 3.41%; viability, T/C (second compound 0.3 µM, first compound 30 µM): 3.89%
